Measured values reported in the NIST ThermoML archive (doi:10.1016/j.jct.2018.11.004).
“And” between values parts separate entries of the source, which are not always exact repeats. Identical values can stand only once.

Details: for molar entropy: 101.33 kPa, Small (less than 1 g) adiabatic calorimetry

CC(C)[C@@H]1CC[C@@H](C)C[C@H]1O [L-menthol]
Details	Triple point temperature [K]	molar entropy [J/K/mol]	vapor or sublimation pressure
5 K, Crystal 1	–	0.2864	–
10 K, Crystal 1	–	2.099	–
15 K, Crystal 1	–	5.656	–
20 K, Crystal 1	–	10.35	–
25 K, Crystal 1	–	15.64	–
30 K, Crystal 1	–	21.2	–
35 K, Crystal 1	–	26.81	–
40 K, Crystal 1	–	32.36	–
45 K, Crystal 1	–	37.82	–
50 K, Crystal 1	–	43.18	–
55 K, Crystal 1	–	48.45	–
60 K, Crystal 1	–	53.64	–
65 K, Crystal 1	–	58.76	–
70 K, Crystal 1	–	63.82	–
75 K, Crystal 1	–	68.83	–
80 K, Crystal 1	–	73.79	–
85 K, Crystal 1	–	78.72	–
90 K, Crystal 1	–	83.6	–
95 K, Crystal 1	–	88.45	–
100 K, Crystal 1	–	93.27	–
105 K, Crystal 1	–	98.05	–
110 K, Crystal 1	–	102.8	–
115 K, Crystal 1	–	107.5	–
120 K, Crystal 1	–	112.2	–
125 K, Crystal 1	–	116.8	–
130 K, Crystal 1	–	121.4	–
135 K, Crystal 1	–	126	–
140 K, Crystal 1	–	130.6	–
145 K, Crystal 1	–	135.1	–
150 K, Crystal 1	–	139.5	–
155 K, Crystal 1	–	144	–
160 K, Crystal 1	–	148.4	–
165 K, Crystal 1	–	152.8	–
170 K, Crystal 1	–	157.2	–
175 K, Crystal 1	–	161.5	–
180 K, Crystal 1	–	165.8	–
185 K, Crystal 1	–	170.1	–
190 K, Crystal 1	–	174.4	–
195 K, Crystal 1	–	178.7	–
200 K, Crystal 1	–	182.9	–
205 K, Crystal 1	–	187.1	–
210 K, Crystal 1	–	191.4	–
215 K, Crystal 1	–	195.5	–
220 K, Crystal 1	–	199.7	–
225 K, Crystal 1	–	203.9	–
230 K, Crystal 1	–	208.1	–
235 K, Crystal 1	–	212.2	–
240 K, Crystal 1	–	216.3	–
245 K, Crystal 1	–	220.5	–
250 K, Crystal 1	–	224.6	–
255 K, Crystal 1	–	228.7	–
260 K, Crystal 1	–	232.9	–
265 K, Crystal 1	–	237	–
270 K, Crystal 1	–	241.2	–
273.64 K, Crystal 1, Closed cell (Static) method	–	–	0.000244 kPa
273.65 K, Crystal 1, Closed cell (Static) method	–	–	0.000244 kPa and 0.000242 kPa
275 K, Crystal 1	–	245.3	–
277.38 K, Crystal 1, Closed cell (Static) method	–	–	0.000399 kPa
277.41 K, Crystal 1, Closed cell (Static) method	–	–	0.000401 kPa
277.5 K, Crystal 1, Closed cell (Static) method	–	–	0.000403 kPa
278.15 K, Crystal 1, Closed cell (Static) method	–	–	0.000441 kPa and 0.00044 kPa
278.16 K, Crystal 1, Closed cell (Static) method	–	–	0.00044 kPa
280 K, Crystal 1	–	249.5	–
282.34 K, Crystal 1, Closed cell (Static) method	–	–	0.000758 kPa and 0.000756 kPa and 0.000759 kPa
283.15 K, Crystal 1, Closed cell (Static) method	–	–	0.000839 kPa and 0.00084 kPa
285 K, Crystal 1	–	253.6	–
286.97 K, Crystal 1, Closed cell (Static) method	–	–	0.001352 kPa and 0.001354 kPa
286.98 K, Crystal 1, Closed cell (Static) method	–	–	0.001355 kPa
288.15 K, Crystal 1, Closed cell (Static) method	–	–	0.001557 kPa and 0.001559 kPa
288.16 K, Crystal 1, Closed cell (Static) method	–	–	0.001558 kPa
290 K, Crystal 1	–	257.8	–
291.56 K, Crystal 1, Closed cell (Static) method	–	–	0.002353 kPa
291.57 K, Crystal 1, Closed cell (Static) method	–	–	0.002354 kPa
291.6 K, Crystal 1, Closed cell (Static) method	–	–	0.002364 kPa
293.14 K, Crystal 1, Closed cell (Static) method	–	–	0.002829 kPa and 0.002828 kPa and 0.002831 kPa
295 K, Crystal 1	–	261.9	–
296.23 K, Crystal 1, Closed cell (Static) method	–	–	0.004057 kPa and 0.004052 kPa
296.25 K, Crystal 1, Closed cell (Static) method	–	–	0.004063 kPa
298.15 K, Crystal 1	–	264.6	–
298.15 K, Crystal 1, Closed cell (Static) method	–	–	0.005047 kPa and 0.005039 kPa and 0.005033 kPa
300 K, Crystal 1	–	266.1	–
300.84 K, Crystal 1, Closed cell (Static) method	–	–	0.006809 kPa
300.85 K, Crystal 1, Closed cell (Static) method	–	–	0.006831 kPa
300.86 K, Crystal 1, Closed cell (Static) method	–	–	0.006832 kPa
303 K, Metastable liquid	–	–	0.01038 kPa and 0.01037 kPa
303.14 K, Crystal 1, Closed cell (Static) method	–	–	0.008771 kPa and 0.008757 kPa and 0.008761 kPa
305 K, Crystal 1	–	270.4	–
305.45 K, Crystal 1, Closed cell (Static) method	–	–	0.01128 kPa
308.15 K, Crystal 1, Closed cell (Static) method	–	–	0.01501 kPa and 0.015 kPa
308.15 K, Metastable liquid	–	–	0.01672 kPa and 0.0167 kPa
308.18 K, Metastable liquid	–	–	0.01676 kPa
308.19 K, Metastable liquid	–	–	0.01678 kPa
308.2 K, Metastable liquid	–	–	0.01678 kPa
310 K, Crystal 1	–	274.6	–
310.04 K, Crystal 1, Closed cell (Static) method	–	–	0.01833 kPa
310.07 K, Crystal 1, Closed cell (Static) method	–	–	0.0184 kPa and 0.01842 kPa
313.38 K, Metastable liquid	–	–	0.02657 kPa and 0.02658 kPa and 0.02656 kPa
314.67 K, Crystal 1, Closed cell (Static) method	–	–	0.02949 kPa and 0.02946 kPa
315 K, Crystal 1	–	278.9	–
315.6 K, Crystal 1	–	279.4	–
315.6 K, Liquid	–	322.1	–
318.43 K, Liquid	–	–	0.0408 kPa
318.46 K, Liquid	–	–	0.04088 kPa
318.47 K, Liquid	–	–	0.04094 kPa
320 K, Liquid	–	327.3	–
323.48 K, Liquid	–	–	0.06146 kPa
323.5 K, Liquid	–	–	0.06158 kPa
323.51 K, Liquid	–	–	0.06164 kPa
325 K, Liquid	–	333.3	–
328.56 K, Liquid	–	–	0.09137 kPa and 0.09138 kPa
330 K, Liquid	–	339.4	–
332.75 K, Liquid	–	–	0.1252 kPa
335 K, Liquid	–	345.4	–
337.81 K, Liquid	–	–	0.1804 kPa
337.82 K, Liquid	–	–	0.1805 kPa
340 K, Liquid	–	351.5	–
342.89 K, Liquid	–	–	0.2562 kPa and 0.2563 kPa
345 K, Liquid	–	357.5	–
347.88 K, Liquid	–	–	0.3573 kPa
350 K, Liquid	–	363.5	–
352.88 K, Liquid	–	–	0.4914 kPa
352.89 K, Liquid	–	–	0.4914 kPa
355 K, Liquid	–	369.6	–
357.86 K, Liquid	–	–	0.6662 kPa
357.87 K, Liquid	–	–	0.6664 kPa
360 K, Liquid	–	375.6	–
362.82 K, Liquid	–	–	0.8914 kPa
362.83 K, Liquid	–	–	0.8915 kPa
365 K, Liquid	–	381.5	–
370 K, Liquid	–	387.5	–
Metastable crystal, DSC	310	–	–

Details	Triple point temperature [K]
Crystal 1, Adiabatic calorimetry	315.6
Crystal 1, DSC	315.4
